In test [1] the target is NAMPT (human, recombinant, C-terminally His-tagged) (Homo sapiens, UniProt P43490). In words: Time-Resolved Fluorescence Resonance Energy Transfer (TR-FRET) Binding Assay of NAMPT. The following applies: 6.8 nM NAMPT, 200 nM probe, equilibrated 3 hours, absence of substrates. The essentials: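 Probe displacement measured by TR-FRET (Ex 337 nm; 520/495 nm ratio) after 3 h room-temperature equilibration of compound with 6.8 nM His-tagged human NAMPT, 1 nM Tb-anti-His antibody and 200 nM Oregon Green 488 nicotinamide-site probe, pH 7.5 HEPES buffer, 2% DMSO. Control-normalized data fit four-parameter logistic for IC50.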

Test [2] addresses NAMPT (Homo sapiens, UniProt P43490). As to the kind of experiment: Time-Resolved Fluorescence Resonance Energy Transfer (TR-FRET) Binding Assay of NAMPT with PRPP. The following applies: 2 nM NAMPT, 2 nM probe, 200 uM PRPP and 2.5 mM ATP, equilibrated 16 hours. The essentials: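 Binding measured by TR-FRET after a 16-hour equilibration meant to permit enzymatic compound modification. Substrates present at 200 uM PRPP and 2.5 mM ATP, with 2 nM enzyme, 2 nM probe, 1 nM Tb-anti-His antibody and 2% DMSO final.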

Each structure is given as a SMILES string.

Chain of NAMPT (human, recombinant, C-terminally His-tagged) (P43490 whole entry): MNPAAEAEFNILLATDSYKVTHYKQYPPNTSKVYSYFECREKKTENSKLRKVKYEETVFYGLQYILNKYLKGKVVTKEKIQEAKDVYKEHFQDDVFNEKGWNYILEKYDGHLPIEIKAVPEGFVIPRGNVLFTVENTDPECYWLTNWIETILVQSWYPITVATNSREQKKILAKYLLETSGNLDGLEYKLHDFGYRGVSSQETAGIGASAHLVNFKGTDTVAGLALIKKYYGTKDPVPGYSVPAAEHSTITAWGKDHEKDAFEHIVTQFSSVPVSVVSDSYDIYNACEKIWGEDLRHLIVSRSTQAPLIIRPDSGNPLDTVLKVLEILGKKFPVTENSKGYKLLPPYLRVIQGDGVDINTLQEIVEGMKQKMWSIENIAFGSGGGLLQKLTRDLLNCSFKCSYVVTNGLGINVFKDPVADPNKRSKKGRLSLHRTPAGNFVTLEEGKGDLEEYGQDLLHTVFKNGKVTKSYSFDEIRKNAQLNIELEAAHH
Chain of NAMPT (P43490 whole entry): as above

`Cc1ncccc1N1CC(C(=O)Nc2ccc(C3CCN(C(=O)CC4CCCC4)CC3)cc2)C1` [Example 162, N-{4-[1-(cyclopentylacetyl)piperidin-4-yl]phenyl}-1-(2-methylpyridin-3-yl)azetidine-3-carboxamide]: the IC50 worked out at 144 nM in test [1] and 71 nM in test [2].
On the same counts, the results for `Cc1ncccc1N1CC(C(=O)Nc2ccc(C3CCN(C(=O)C4CC4C)CC3)cc2)C1` (centres unmarked) [Example 163, N-(4-{1-[(2-methylcyclopropyl)carbonyl]piperidin-4-yl}phenyl)-1-(2-methylpyridin-3-yl)azetidine-3-carboxamide] are 166 nM and 83.1 nM.
The like results for `Cc1ncccc1N1CC(C(=O)Nc2ccc(C3CCN(C(=O)CN4CCOCC4)CC3)cc2)C1` [Example 164, 1-(2-methylpyridin-3-yl)-N-{4-[1-(morpholin-4-ylacetyl)piperidin-4-yl]phenyl}azetidine-3-carboxamide] were, in that order, 987 nM and 124 nM.
The like results for `Cc1ncccc1N1CC(C(=O)Nc2ccc(C3CCN(C(=O)c4ccoc4)CC3)cc2)C1` [Example 165, N-{4-[1-(furan-3-ylcarbonyl)piperidin-4-yl]phenyl}-1-(2-methylpyridin-3-yl)azetidine-3-carboxamide] were, in that order, 35.2 nM and 68.3 nM.
Consider `Cc1ncccc1N1CC(C(=O)Nc2ccc(C3CCN(C(=O)CN4CCCC4)CC3)cc2)C1` [Example 166, 1-(2-methylpyridin-3-yl)-N-{4-[1-(pyrrolidin-1-ylacetyl)piperidin-4-yl]phenyl}azetidine-3-carboxamide], for which the results for the concentration for half-maximal inhibition (IC50) in test [1] and in test [2] were 2270 nM and 206 nM, respectively.
As to `Cc1ncccc1N1CC(C(=O)Nc2ccc(C3CCN(C(=O)[C@H]4CCC(=O)N4)CC3)cc2)C1` [Example 167, 1-(2-methylpyridin-3-yl)-N-{4-[1-(5-oxo-D-prolyl)piperidin-4-yl]phenyl}azetidine-3-carboxamide], the IC50 in test [1] was found to be 3740 nM; in test [2], 204 nM.
On the same counts, the results for `Cc1ncccc1N1CC(C(=O)Nc2ccc(C3CCN(C(=O)CCN(C)C)CC3)cc2)C1` [Example 168, N-{4-[1-(N,N-dimethyl-beta-alanyl)piperidin-4-yl]phenyl}-1-(2-methylpyridin-3-yl)azetidine-3-carboxamide] are 2940 nM and 171 nM.
The like results for `Cc1ncccc1N1CC(C(=O)Nc2ccc(C3CCN(C(=O)c4ccsc4)CC3)cc2)C1` [Example 169, 1-(2-methylpyridin-3-yl)-N-{4-[1-(thiophen-3-ylcarbonyl)piperidin-4-yl]phenyl}azetidine-3-carboxamide] were, in that order, 33.7 nM and 67.9 nM.
The like results for `Cc1ncccc1N1CC(C(=O)Nc2ccc(C3CCN(C(=O)C4(C)CC4)CC3)cc2)C1` [Example 170, N-(4-{1-[(1-methylcyclopropyl)carbonyl]piperidin-4-yl}phenyl)-1-(2-methylpyridin-3-yl)azetidine-3-carboxamide] were, in that order, 91.5 nM and 89.8 nM.
`Cc1ccsc1C(=O)N1CCC(c2ccc(NC(=O)C3CN(c4cccnc4C)C3)cc2)CC1` [Example 171, 1-(2-methylpyridin-3-yl)-N-(4-{1-[(3-methylthiophen-2-yl)carbonyl]piperidin-4-yl}phenyl)azetidine-3-carboxamide]: the IC50 in test [1] came out at 19.7 nM; in test [2], 37.9 nM.
With `Cc1ncccc1N1CC(C(=O)Nc2ccc(C3CCN(C(=O)CCC(F)(F)F)CC3)cc2)C1` [Example 172, 1-(2-methylpyridin-3-yl)-N-{4-[1-(4,4,4-trifluorobutanoyl)piperidin-4-yl]phenyl}azetidine-3-carboxamide], the values for the IC50 in test [1] and in test [2] were 286 nM and 170 nM, respectively.
`Cc1ncccc1N1CC(C(=O)Nc2ccc(C3CCN(C(=O)CN4CCN(C)CC4)CC3)cc2)C1` [Example 173, N-(4-{1-[(4-methylpiperazin-1-yl)acetyl]piperidin-4-yl}phenyl)-1-(2-methylpyridin-3-yl)azetidine-3-carboxamide]: the values for the IC50 in test [1] and in test [2] were 524 nM and 154 nM, respectively.
`Cc1ncccc1N1CC(C(=O)Nc2ccc(C3CCN(C(=O)[C@@H]4CCC(=O)N4)CC3)cc2)C1` [Example 174, 1-(2-methylpyridin-3-yl)-N-{4-[1-(5-oxo-L-prolyl)piperidin-4-yl]phenyl}azetidine-3-carboxamide]: the figures for the concentration for half-maximal inhibition (IC50) in test [1] and in test [2] were 2100 nM and 158 nM, respectively.
Turning to `CCOCCC(=O)N1CCC(c2ccc(NC(=O)C3CN(c4cccnc4C)C3)cc2)CC1` [Example 175, N-{4-[1-(3-ethoxypropanoyl)piperidin-4-yl]phenyl}-1-(2-methylpyridin-3-yl)azetidine-3-carboxamide], the values for the IC50 in test [1] and in test [2] were 664 nM and 161 nM, respectively.
Take `Cc1ncccc1N1CC(C(=O)Nc2ccc(C3CCN(C(=O)CCC(C)C)CC3)cc2)C1` [Example 176, N-{4-[1-(4-methylpentanoyl)piperidin-4-yl]phenyl}-1-(2-methylpyridin-3-yl)azetidine-3-carboxamide]: the values for the IC50 in test [1] and in test [2] were 165 nM and 111 nM, respectively.
The like results for `Cc1ncccc1N1CC(C(=O)Nc2ccc(C3CCN(C(=O)C4(C)CCCCC4)CC3)cc2)C1` [Example 177, N-(4-{1-[(1-methylcyclohexyl)carbonyl]piperidin-4-yl}phenyl)-1-(2-methylpyridin-3-yl)azetidine-3-carboxamide] were, in that order, 60.4 nM and 91.3 nM.
The like results for `CC(=O)N1CCC(c2ccc(NC(=O)C3CN(c4cccnc4C)C3)cc2)CC1` [Example 178, N-[4-(1-acetylpiperidin-4-yl)phenyl]-1-(2-methylpyridin-3-yl)azetidine-3-carboxamide] were, in that order, 247 nM and 65.2 nM.
As to `Cc1ncccc1N1CC(C(=O)Nc2ccc(C3CCN(C(=O)CC4CCCCC4)CC3)cc2)C1` [Example 179, N-{4-[1-(cyclohexylacetyl)piperidin-4-yl]phenyl}-1-(2-methylpyridin-3-yl)azetidine-3-carboxamide], the results for the IC50 in test [1] and in test [2] were 99.2 nM and 70.7 nM, respectively.
In the case of `CC(=O)N[C@@H](CC(C)C)C(=O)N1CCC(c2ccc(NC(=O)C3CN(c4cccnc4C)C3)cc2)CC1` [Example 180, N-{4-[1-(N-acetyl-L-leucyl)piperidin-4-yl]phenyl}-1-(2-methylpyridin-3-yl)azetidine-3-carboxamide], the IC50 in test [1] stood at 304 nM; in test [2], 123 nM.
For `CCC(=O)N1CCC(c2ccc(NC(=O)C3CN(c4cccnc4C)C3)cc2)CC1` [Example 181, 1-(2-methylpyridin-3-yl)-N-[4-(1-propanoylpiperidin-4-yl)phenyl]azetidine-3-carboxamide], the IC50 was 284 nM in test [1] and 128 nM in test [2].
On the same counts, the results for `Cc1ncccc1N1CC(C(=O)Nc2ccc(C3CCN(C(=O)CC(F)(F)F)CC3)cc2)C1` [Example 182, 1-(2-methylpyridin-3-yl)-N-{4-[1-(3,3,3-trifluoropropanoyl)piperidin-4-yl]phenyl}azetidine-3-carboxamide] are 140 nM and 104 nM.
Turning to `COCCOCC(=O)N1CCC(c2ccc(NC(=O)C3CN(c4cccnc4C)C3)cc2)CC1` [Example 183, N-(4-{1-[(2-methoxyethoxy)acetyl]piperidin-4-yl}phenyl)-1-(2-methylpyridin-3-yl)azetidine-3-carboxamide], the IC50 in test [1] was 1040 nM; in test [2], 185 nM.

The values above are taken from patent publication US8975398B2, “NAMPT inhibitors” (AbbVie Inc., priority 2012, dated 2015).
